Data: patent US11542282B2, “Low affinity poly(AD-ribose) polymerase 1 dependent cytotoxic agents” (THE TRUSTEES OF THE UNIVERSITY OF PENNSYLVANIA, priority 2018, dated 2023)

What was measured:
PARP-1 = PARP-1 (Homo sapiens, UniProt P09874); assay: PARP-1 radioligand binding in live OVCAR8 cells ([125I]KX1 competition); settings: for IC50: radioligand binding in OVCAR8 cells; for enzyme affinity in contrast to respective boc-protected analogue: free-amine derivatives
Description: Cells were cultured using standard techniques at 37° C. with 5% CO2 and 15% 02. […] Genetically engineered PARP-1 and PARP-2 double knockout mouse embryonic fibroblast (MEF) were used for cell viability studies with wildtype control. All cells were cultured in RPMI 1640 with 10% FBS and 1% penicillin/streptomycin.
The affinity of each compound for the PARP-1 enzyme was evaluated using a radioligand binding method described in Makvandi, A radiotracer strategy to quantify PARP-1 expression in vivo provides a biomarker that can enable patient selection for PARP inhibitor therapy. Cancer Research 2016. Briefly, OVCAR8 ovarian cancer cells were seeded in 96-well Stripwell plates at a density of 40,000 cells/well 24 hrs prior to the study. On the day of study, compounds were diluted in RPMI to concentrations of 100 μM-0.064 nM. […] Reactions were allowed to equilibrate for 1 hr and were then washed with 200 μL of PBS. Wells were separated and counted on an automatic Wizard gamma counter (Perkin Elmer, Waltham Mass.). […] Experiments were repeated three times with adjusting dose concentrations to increase accuracy of IC50 values.
Compounds 10-17 were evaluated for PARP-1 inhibition using a radioligand binding assay protocol with BRCA1 methylated ovarian cancer cells (OVCAR8) as described above. See, Table 3. […] Compared to 1a, oxaazaspiro analogue 1b performed slightly better with scaffold 10b displaying a PARP-1 binding value of 24.9 nM.

[1] = system: MEF PARP-2 (-/-) KO cells; assay: Cell viability assay in MEF PARP-2 KO-/- cells; type: cell-based, mouse; settings: Mus musculus, NA = Not applicable, no cell death observed
Description: Genetically engineered PARP-1 and PARP-2 double knockout mouse embryonic fibroblast (MEF) were used for cell viability studies with wildtype control.
Cell viability assays were carried out using four cell lines including OVCAR8, MEF wt, MEF PARP-1 (−/−) KO, and MEF PARP-2 (−/−) KO as described in Makvandi cited above. Briefly, cells were seeded in black wall clear bottom 96-well plates at concentrations of 1,000 cells/well. […] Plates were read on an Enspire multimode plate reader (Perkin Elmer). Data was normalized to percent survival at each concentration evaluated by diving the luminescent signal in treated wells vs. the average of vehicle controls. Experiments were repeated three times and all compounds were assayed during each experiment.
This isogenic model was selected due to the highly conserved nature of the PARP catalytic domain, all-owing investigation in enzyme specificity.
The cell cytotoxicity profile of these selected compounds in MEF PARP-2 KO−/− cell lines was then analyzed as described above.

Sequence of PARP-1 (P09874 whole entry): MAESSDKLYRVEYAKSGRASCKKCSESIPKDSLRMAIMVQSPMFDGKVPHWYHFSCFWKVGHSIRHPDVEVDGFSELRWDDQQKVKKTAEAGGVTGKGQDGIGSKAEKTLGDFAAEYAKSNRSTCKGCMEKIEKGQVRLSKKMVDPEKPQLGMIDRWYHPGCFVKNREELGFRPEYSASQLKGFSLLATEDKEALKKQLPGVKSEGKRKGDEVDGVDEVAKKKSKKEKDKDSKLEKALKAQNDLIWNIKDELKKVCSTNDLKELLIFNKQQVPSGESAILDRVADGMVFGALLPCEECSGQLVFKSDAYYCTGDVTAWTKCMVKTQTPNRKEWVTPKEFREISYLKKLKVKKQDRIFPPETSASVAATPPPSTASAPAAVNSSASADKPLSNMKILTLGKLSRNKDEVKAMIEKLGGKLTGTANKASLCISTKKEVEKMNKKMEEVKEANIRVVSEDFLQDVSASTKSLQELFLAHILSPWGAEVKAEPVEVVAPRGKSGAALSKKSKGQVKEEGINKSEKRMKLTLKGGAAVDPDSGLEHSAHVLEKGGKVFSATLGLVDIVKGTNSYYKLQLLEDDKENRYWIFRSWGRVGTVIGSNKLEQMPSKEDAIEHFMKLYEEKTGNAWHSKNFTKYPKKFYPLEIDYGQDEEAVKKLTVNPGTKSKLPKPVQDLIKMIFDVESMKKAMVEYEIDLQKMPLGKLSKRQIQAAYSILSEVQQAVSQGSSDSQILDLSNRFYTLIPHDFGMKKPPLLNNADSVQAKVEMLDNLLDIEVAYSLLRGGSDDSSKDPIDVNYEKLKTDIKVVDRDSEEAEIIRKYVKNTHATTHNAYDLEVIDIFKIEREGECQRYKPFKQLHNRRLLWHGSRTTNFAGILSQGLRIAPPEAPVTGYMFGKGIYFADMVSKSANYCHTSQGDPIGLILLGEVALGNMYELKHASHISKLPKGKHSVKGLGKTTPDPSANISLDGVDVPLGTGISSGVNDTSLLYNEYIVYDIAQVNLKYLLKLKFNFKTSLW

Row | Compound | EC50 (PARP-1) | EC50 [1] | other results
1 | O=C(c1cc(Cc2n[nH]c(=O)c3ccccc23)ccc1F)N1CC2(CNC2)C1 [Compound 10d, 4-(4-Fluoro-3-(2,6-diazaspiro[3.3]heptane-2-carbonyl)benzyl)phthalazin-1(2H)-one] | 2390 nM | – | –
2 | O=C(c1cc(Cc2n[nH]c(=O)c3ccccc23)ccc1F)N1CC2(C1)CN(C(=O)C1CC1)C2 [Compound 10e, 4-(3-(6-(Cyclopropanecarbonyl)-2,6-diazaspiro[3.3]heptane-2-carbonyl)-4-fluorobenzyl)phthalazin-1(2H)-one] | 12.6 nM | 59.8 µM | IC50 (PARP-1): 12.6 nM
3 | O=C(c1cc(Cc2n[nH]c(=O)c3ccccc23)ccc1F)N1CCC12CNC2 [Compound 11c, 4-(4-Fluoro-3-(1,6-diazaspiro[3.3]heptane-1-carbonyl)benzyl)phthalazin-1(2H)-one] | – | – | enzyme affinity in contrast to respective boc-protected analogue (PARP-1): slight increase in enzyme affinity
4 | O=C(c1cc(Cc2n[nH]c(=O)c3ccccc23)ccc1F)N1CC2(CCNCC2)C1 [Compound 12c, 4-(4-Fluoro-3-(2,7-diazaspiro[3.5]nonane-2-carbonyl)benzyl)phthalazin-1(2H)-one] | 1420 nM | 68.5 µM | enzyme affinity in contrast to respective boc-protected analogue (PARP-1): slight increase in enzyme affinity
5 | O=C(c1cc(Cc2n[nH]c(=O)c3ccccc23)ccc1F)N1CCC12CCNCC2 [Compound 13c, 4-(4-Fluoro-3-(1,7-diazaspiro[3.5]nonane-1-carbonyl)benzyl)phthalazin-1(2H)-one] | 110 nM | 106 µM | fold improvement of PARP-1 affinity upon removing the boc-group (PARP-1; 13c vs 13b): ~29 fold; IC50 (PARP-1): 110 nM
6 | CC(C)(C)OC(=O)N1CCC2(C1)CN(C(=O)c1cc(Cc3n[nH]c(=O)c4ccccc34)ccc1F)C2 [Compound 14b] | – | – | IC50 (PARP-1): 1190 nM

The next lines start with results.

Row | EC50 (PARP-1) | Compound | EC50 [1] | other results
7 | 1240 nM | O=C(c1cc(Cc2n[nH]c(=O)c3ccccc23)ccc1F)N1CCC2(CNC2)C1 [Compound 14c, 4-(4-Fluoro-3-(2,6-diazaspiro[3.4]octane-6-carbonyl)benzyl)phthalazin-1(2H)-one] | – | –
8 | 1120 nM | O=C(c1cc(Cc2n[nH]c(=O)c3ccccc23)ccc1F)N1CCC2(CCNC2)C1 (stereo not drawn) [Compound 15c, 4-(4-Fluoro-3-(2,7-diazaspiro[4.4]nonane-2-carbonyl)benzyl)phthalazin-1(2H)-one] | 512 µM | enzyme affinity in contrast to respective boc-protected analogue (PARP-1): slight increase in enzyme affinity
9 | 2590 nM | O=C(c1cc(Cc2n[nH]c(=O)c3ccccc23)ccc1F)N1CCC2(CCN(C(=O)C3CC3)C2)C1 (stereo not drawn) [Compound 15d, 4-(3-(7-(Cyclopropanecarbonyl)-2,7-dizaspiro[4.4]nonane-2-carbonyl)-4-fluorobenzyl)phthalazin-1(2H)-one] | 70.9 µM | –
10 | 3880 nM | O=C(c1cc(Cc2n[nH]c(=O)c3ccccc23)ccc1F)N1CCC2(CCNCC2)C1 [Compound 16c, 4-(4-Fluoro-3-(2,8-diazaspiro[4.5]decane-2-carbonyl)benzyl)phthalazin-1(2H)-one] | – | –
11 | 74.1 nM | COC1CC(NC(=O)c2cc(Cc3n[nH]c(=O)c4ccccc34)ccc2F)C1 (stereo not drawn) [Compound 18] | – | –
12 | 1.3 nM | O=C(c1cc(Cc2n[nH]c(=O)c3ccccc23)ccc1F)N1CCC(c2ccc(F)cc2)CC1 [Compound 36, 4-(4-fluoro-3-(4-(4-fluorophenyl)piperidine-1-carbonyl)benzyl)phthalazin-1(2H)-one] | – | –
13 | 10.7 ± 1.1 nM | O=C(c1cc(Cc2n[nH]c(=O)c3ccccc23)ccc1F)N1CC2(CC(OCCF)C2)C1 [Compound 37B, 4-(4-fluoro-3-(6-(2-fluoroethoxy)-2-azaspiro[3.3]heptane-2-carbonyl)benzyl)phthalazin-1(2H)-one] | – | –
14 | 2.8 nM | O=C(c1cc(Cc2n[nH]c(=O)c3ccccc23)ccc1F)N1CC2(CC(c3ccc(F)cc3)C2)C1 [Compound 39, 4-(4-fluoro-3-(6-(4-fluorophenyl)-2-azaspiro[3.3]heptane-2-carbonyl)benzyl)phthalazin-1(2H)-one] | – | –
